In brackets after ≈: the same amount, converted by molar mass.
Tests used:
[1] = biological target: T1, PBP3 from Pseudomonas aeruginosa (PAO1) (Pseudomonas aeruginosa, UniProt G3XD46); assay: Bocillin-FL fluorescence polarization competition binding, P. aeruginosa PBP3; settings: Binding affinity to P. aeruginosa PBP3; fluorescence polarization competition binding assay using Bocillin-FL; read-out: P. aeruginosa PBP3 Potency
T1 construct: made in house
Outline: (§1)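 Purified PBPs pre-incubated with inhibitor (E. coli PBP3 1.5 μM, 30 min; P. aeruginosa PBP3 0.75 μM, A. baumannii PBP1a 1 μM and PBP3 0.2 μM, 15 min), then Bocillin-FL 0.1 μM (0.05 μM for PBP1a) added; FP read up to 60 min. EC50 = concentration halving bound Bocillin-FL.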

[2] = system: P. aeruginosa CDC-0054; assay: microbe, parasite or virus in culture; assay type: cell-based; settings: Pseudomonas aeruginosa, CDC0054, read-out: Minimum inhibitory concentration, P. aeruginosa CDC-0054
[3] = biological target: T2, PBP3 from Acinetobacter baumannii (ATCC 19606) (Acinetobacter baumannii, UniProt A0ABX6CK25); assay: Bocillin-FL fluorescence polarization competition binding, A. baumannii PBP3; settings: fluorescence polarization competition binding assay using Bocillin-FL; read-out: A. baumannii PBP3 Potency
T2 sequence (A0ABX6CK25 64-610): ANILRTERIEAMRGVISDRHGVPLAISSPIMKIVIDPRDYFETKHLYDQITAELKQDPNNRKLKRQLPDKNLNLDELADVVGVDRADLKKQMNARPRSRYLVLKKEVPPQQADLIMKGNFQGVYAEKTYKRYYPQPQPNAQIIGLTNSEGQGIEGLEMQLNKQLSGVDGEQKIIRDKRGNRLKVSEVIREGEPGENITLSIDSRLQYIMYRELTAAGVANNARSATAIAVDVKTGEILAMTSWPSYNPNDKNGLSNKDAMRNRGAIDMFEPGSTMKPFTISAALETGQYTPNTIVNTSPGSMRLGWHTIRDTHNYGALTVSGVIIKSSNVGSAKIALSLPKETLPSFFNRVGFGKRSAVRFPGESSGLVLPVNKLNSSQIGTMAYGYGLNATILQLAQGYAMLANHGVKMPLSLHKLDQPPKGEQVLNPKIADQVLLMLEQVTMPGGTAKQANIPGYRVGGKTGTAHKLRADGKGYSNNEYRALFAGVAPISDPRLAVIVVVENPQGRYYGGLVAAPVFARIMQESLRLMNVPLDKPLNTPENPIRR
Outline: as §1

[4] = system: P. aeruginosa CDC-0090; assay: microbe, parasite or virus in culture; assay type: cell-based; settings: Pseudomonas aeruginosa, CDC0090, read-out: Minimum inhibitory concentration, P. aeruginosa CDC-0090
[5] = system: A. baumannii 1258916; assay: microbe, parasite or virus in culture; assay type: cell-based, Acinetobacter baumannii; settings: Acinetobacter baumannii, 1258916, read-out: MIC, A. baumannii 1258916
[6] = system: A. baumannii ATCC 17978; assay: microbe, parasite or virus in culture; assay type: cell-based; settings: Acinetobacter baumannii, ATCC17978, read-out: MIC, A. baumannii ATCC 17978
[7] = system: P. aeruginosa CDC-0095; assay: microbe, parasite or virus in culture; assay type: cell-based; settings: Pseudomonas aeruginosa, CDC0095, read-out: Minimum inhibitory concentration, P. aeruginosa CDC-0095
[8] = system: A. baumannii ATCC 19606; assay: microbe, parasite or virus in culture; assay type: cell-based; settings: Acinetobacter baumannii, ATCC19606, read-out: MIC, A. baumannii ATCC 19606

T1 sequence (G3XD46 whole entry): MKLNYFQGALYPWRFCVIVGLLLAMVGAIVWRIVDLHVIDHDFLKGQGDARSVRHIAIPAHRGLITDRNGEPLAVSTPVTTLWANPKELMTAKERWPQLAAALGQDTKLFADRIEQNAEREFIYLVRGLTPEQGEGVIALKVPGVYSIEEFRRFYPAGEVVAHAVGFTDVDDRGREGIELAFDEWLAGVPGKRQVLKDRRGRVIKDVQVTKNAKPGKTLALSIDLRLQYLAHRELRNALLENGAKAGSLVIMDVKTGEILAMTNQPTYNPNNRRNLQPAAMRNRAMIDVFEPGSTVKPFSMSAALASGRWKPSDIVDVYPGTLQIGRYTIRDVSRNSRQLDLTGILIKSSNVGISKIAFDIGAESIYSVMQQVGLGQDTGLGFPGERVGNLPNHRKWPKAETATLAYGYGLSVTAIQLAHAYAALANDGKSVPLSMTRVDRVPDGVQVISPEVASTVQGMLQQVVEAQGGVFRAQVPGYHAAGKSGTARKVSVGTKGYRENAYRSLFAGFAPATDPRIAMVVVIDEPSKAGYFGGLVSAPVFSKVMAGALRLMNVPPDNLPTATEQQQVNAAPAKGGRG

Structure (SMILES) | IC50 [1] [µM] | MIC [2] [µg/mL] | IC50 [3] [µM] | MIC [4] [µg/mL] | MIC [5] [µg/mL] | MIC [6] [µg/mL] | MIC [7] [µg/mL] | MIC [8] [µg/mL]
O=C(O)c1c(F)ccc2c1OB(O)[C@@H](NC(=O)[C@H](NC(=O)N1CCN(Cc3ccc(O)c(O)c3Cl)C(=O)C1=O)c1ccc(P(=O)(O)O)cc1)C2 (single isomer, unassigned) [Example 160] | < 10 | < 1 | < 10 | < 1 | < 1 | < 1 | < 1 | < 1
O=C(O)c1c(F)ccc2c1OB(O)[C@@H](NC(=O)[C@H](NC(=O)N1CCN(Cc3ccc(O)c(O)c3Cl)C(=O)C1=O)c1cccc(P(=O)(O)O)c1)C2 (single isomer, unassigned) [Example 163] | < 10 | < 1 | < 10 | 2 to 4 (≈ 2.72 to 5.44 µM) | < 1 | < 1 | < 1 | < 1
O=C(NCCS(=O)(=O)N1CCN(C(=O)N[C@@H](C(=O)N[C@H]2Cc3ccc(F)c(C(=O)O)c3OB2O)c2ccc(P(=O)(O)O)cc2)C1=O)c1ccc(O)c(O)c1Cl (single isomer, unassigned) [Example 168] | < 10 | 32 to 64 (≈ 38.7 to 77.3 µM) | < 10 | 32 to 64 (≈ 38.7 to 77.3 µM) | 2 to 4 (≈ 2.42 to 4.83 µM) | < 1 | 8 to 16 (≈ 9.66 to 19.3 µM) | < 1
O=C(NCCCS(=O)(=O)N1CCN(C(=O)N[C@H](C(=O)N[C@H]2Cc3ccc(F)c(C(=O)O)c3OB2O)c2ccc(P(=O)(O)O)cc2)C1=O)c1ccc(O)c(O)c1Cl (single isomer, unassigned) [Example 169] | > 250 | > 128 | 10 to 50 | > 128 | > 128 | > 128 | > 128 | > 128
O=C(O)c1c(F)ccc2c1OB(O)[C@@H](NC(=O)[C@H](NC(=O)N1CCN(C3CCN(C(=O)Nc4ccc(O)cc4)CC3)C(=O)C1=O)c1cc(F)c(O)c(O)c1Cl)C2 (single isomer, unassigned) [Example 426] | < 10 | < 1 | < 10 | < 1 | 2 to 4 (≈ 2.5 to 4.99 µM) | < 1 | 2 to 4 (≈ 2.5 to 4.99 µM) | < 1
O=C(O)c1c(F)ccc2c1OB(O)[C@@H](NC(=O)[C@H](NC(=O)N1CCN(C3CCN(C(=O)c4cccc(O)c4)CC3)C1=O)c1cc(F)c(O)c(O)c1Cl)C2 (single isomer, unassigned) [Example 430] | < 10 | < 1 | < 10 | < 1 | 8 to 16 (≈ 10.6 to 21.1 µM) | < 1 | < 1 | < 1
O=C(O)c1c(F)ccc2c1OB(O)[C@@H](NC(=O)[C@H](NC(=O)N1CCN(C3CCN(C(=O)c4cccc(O)c4F)CC3)C1=O)c1cc(F)c(O)c(O)c1Cl)C2 (single isomer, unassigned) [Example 431] | < 10 | < 1 | < 10 | < 1 | < 1 | < 1 | < 1 | < 1
O=C(O)c1c(F)ccc2c1OB(O)[C@@H](NC(=O)[C@H](NC(=O)N1CCN(C3CCN(C(=O)c4cccc(O)c4Cl)CC3)C1=O)c1cc(F)c(O)c(O)c1Cl)C2 (single isomer, unassigned) [Example 432] | < 10 | < 1 | < 10 | < 1 | < 1 | < 1 | < 1 | < 1
O=C(O)c1c(F)ccc2c1OB(O)[C@@H](NC(=O)[C@@H](NC(=O)N1CCN(C3CCN(C(=O)c4ccc(O)cc4)CC3)C1=O)c1cc(F)c(O)c(O)c1Cl)C2 (single isomer, unassigned) [Example 462] | 10 to 50 | 8 to 16 (≈ 10.6 to 21.1 µM) | < 10 | – | 32 to 64 (≈ 42.2 to 84.4 µM) | < 1 | 32 to 64 (≈ 42.2 to 84.4 µM) | 8 to 16 (≈ 10.6 to 21.1 µM)

— patent US20240270762A1, “PENICILLIN-BINDING PROTEIN INHIBITORS” (priority 2021, published 2024)
